For data set [1] the following is noted: cited from earlier work.
Data set [2] concerns human acute promyelocytic leukemia cell strain HL-60. Briefly: Differentiation induction of HL-60 cells, NBT-reducing ability. In kind it is cell-based. The settings on record: 96 h, cultured four days, NBT reduction, read-out: ED50 (the source's name). How it is done:
Cells of human acute promyelocytic leukemia cell strain HL-60 were cultured in a CO2 incubator (5% CO2, 37° C.) using the RPMI medium containing 5% FBS. Differentiation inducing action of the compounds of the present invention on the HL-60 cells were evaluated on the basis of ability to reduce nitroblue tetrazolium (NBT) determined by observing differentiation from promyelocytic cells into granulocytic cells as an index. As positive control of retinoid compounds, retinoic acid and Am80 [4-[(5,6,7,8-tetrahydro-5,5,8,8-tetramethyl-2-naphthalenyl)carbamoyl]benzoic acid] were used. The cells that entered into the logarithmic phase and reached a substantially confluent state were centrifuged at 1000 rpm for 5 minutes, and the culture supernatant was removed. The cell pellet was suspended in fresh RPMI medium containing 5% FBS at a density of 8.0×10^4 cells/ml, then the suspension was added with a test compound dissolved in DMSO at an intended concentration, and the cells were cultured for four days and then used for the experiment. The samples were prepared so as to have the same DMSO concentration.
Cell count of the cells after the culture for a predetermined period was determined by a cell counting method using a blood cell counting chamber. The NBT-reducing ability was obtained as follows. NBT was dissolved in a phosphate buffered saline (PBS(−)) at a concentration of 0.2%, and the solution was added with an equivalent volume of the RPMI medium containing 5% FBS. The mixture was added with phorbol 12-myristate 13-acetate (tPA) at a concentration of 0.2 μM (about 200 ng) to prepare a reagent solution. The collected cells were centrifuged at 1000 rpm for 5 minutes, the supernatant was removed, and the remained cell pellet was added with the reagent solution. The mixture was incubated on a water bath at 37° C. for 20 minutes, and then NBT-reduced stained positive cells were counted by using the counting chamber to calculate a differentiation induction ratio.

Read-outs that look alike come from different tables or passages of the source.

As to `CC(C)(C)c1ccc(C(=O)Nc2ccc(C(=O)O)cc2)o1` [4-[(5-t-butylfuran-2-carbonyl)amino]benzoic acid], the results for the differentiation induction ratio in data set [1] (at 3.7 μM), in data set [1] (at 19 μM) and in data set [1] (at 74 μM) were 26%, 42% and 60%, respectively. On to `CC(C)(C)c1ccc(C(=O)Nc2ccc(C(=O)O)cc2)s1` [4-[(5-t-butylthiophene-2-carbonyl)amino]benzoic acid], for which, in data set [1] (at 0.22 μM), the differentiation induction entry is listed as “no differentiation induction”. The differentiation induction ratio is on record as 22% in data set [1] (at 1.1 μM) and 23% in data set [1] (at 5.6 μM).

For `CC1(C)CCC(C)(C)c2cc(NC(=O)c3ccc(C(=O)O)cc3)ccc21` [Am80, 4-[(5,6,7,8-tetrahydro-5,5,8,8-tetramethyl-2-naphthalenyl)carbamoyl]benzoic acid, reference compound], the EC50 in data set [2] turned out to be 1.6 nM. `CC(C)c1cc(C(=O)Nc2ccc(C(=O)O)cc2)oc1C(C)C` [Compound 1, 4-[(4,5-Diisopropylfuran-2-carbonyl)amino]benzoic acid]: the melting point (usually the temperature, or range, at which the solid turns liquid) fell in the range of 120 to 121 °C. Further, the EC50 in data set [2] worked out at 1.1 nM. Molecule `CC(C)c1cc(C(=O)Nc2ccc(OCC(=O)O)cc2)oc1C(C)C` [Compound 3, 4-[(4,5-Diisopropylfuran-2-carbonyl)amino]phenyloxyacetic acid] showed a melting point of 83 to 85 °C. In the case of `CC(C)c1cc(C(=O)Nc2ccc(CC(=O)O)cc2)oc1C(C)C` [Compound 4, 4-[(4,5-Diisopropylfuran-2-carbonyl)amino]phenylacetic acid], the melting point lay in the range of 154 to 156 °C.

In the case of `CC(C)c1cc(C(=O)Nc2cccc(C(=O)O)c2)oc1C(C)C` [Compound 5, 3-[(4,5-Diisopropylfuran-2-carbonyl)amino]benzoic acid], the melting point lay in the range of 243.5 to 245 °C.

`CC(C)c1cc(C(=O)Nc2ccc(CCC(=O)O)cc2)oc1C(C)C` [Compound 6, 3-[4-[(4,5-Diisopropylfuran-2-carbonyl)amino]phenyl]propionic acid]: the melting point lay within 139 to 141 °C. In data set [2], the EC50 is above 1000 nM. In turn, `CC(C)c1cc(C(=O)Nc2ccc(C(=O)O)nc2)oc1C(C)C` [Compound 7, 5-[(4,5-Diisopropylfuran-2-carbonyl)amino]pyridine-2-carboxylic acid] had a melting point of 106 to 107.5 °C. The EC50 in data set [2] is 13.1 nM.

On to `CC(C)c1cc(C(=O)Nc2ccc(C(=O)O)cn2)oc1C(C)C` [Compound 8, 6-[(4,5-Diisopropylfuran-2-carbonyl)amino]pyridine-3-carboxylic acid], for which the melting point was 278 to 279 °C. Further, the EC50 in data set [2] came to 1.9 nM. Taken in the same sequence, the figures for `CC(C)c1cc(C(=O)Nc2ccc(C(=O)O)s2)oc1C(C)C` [Compound 9, 5-[(4,5-Diisopropylfuran-2-carbonyl)amino]thiophene-2-carboxylic acid] were 227 to 228.5 °C and 72.9 nM. `CC(C)c1cc(/C=C/C(=O)Nc2ccc(C(=O)O)cc2)oc1C(C)C` [Compound 10, 4-[[3-(4,5-Diisopropyl-2-furanyl)acryloyl]amino]benzoic acid] came in with a melting point of 131 to 133 °C. The EC50 in data set [2] turned out to be 166 nM. For `C/C(=C\C(=O)Nc1ccc(C(=O)O)cc1)c1cc(C(C)C)c(C(C)C)o1` [Compound 11, 4-[[3-(4,5-Diisopropyl-2-furanyl)crotonoyl]amino]benzoic acid], in that order: 232.5 to 235 °C and 74.7 nM.

Take `CC(C)c1cc(C(=O)Nc2ccc(C(=O)O)cc2)[nH]c1C(C)C` [Compound 12, 4-[(4,5-Diisopropylpyrrole-2-carbonyl)amino]benzoic acid]: the melting point lay in the range of 230 to 230.5 °C. In data set [2], the EC50 turned out to be 40.4 nM.

`CC(C)c1cc(C(C)C)c(C(=O)Nc2ccc(C(=O)O)cc2)[nH]1` [Compound 13, 4-[(3,5-Diisopropylpyrrole-2-carbonyl)amino]benzoic acid]: the melting point fell in the range of 225 to 226 °C. Consider `CC(C)c1[nH]c(C(=O)Nc2ccc(C(=O)O)cc2)c(C(C)C)c1C(C)C` [Compound 14, 4-[(3,4,5-Triisopropylpyrrole-2-carbonyl)amino]benzoic acid], for which the melting point is above 300 °C. The EC50 in data set [2] is above 1000 nM. Taken in the same sequence, the figures for `CC(C)c1cc(C(=O)Nc2ccc(C(=O)O)cc2)sc1C(C)C` [Compound 15, 4-[(4,5-Diisopropylthiophene-2-carbonyl)amino]benzoic acid] were 219 to 221 °C and 1.8 nM. `CC(C)c1cc(C(=O)Nc2ccc(C(=O)O)nc2)sc1C(C)C` [Compound 16, 5-[(4,5-Diisopropylthiophene-2-carbonyl)amino]pyridine-2-carboxylic acid] had a melting point of 216 to 217 °C. `CC(C)c1cc(C(=O)Nc2ccc(C(=O)O)cn2)sc1C(C)C` [Compound 17, 6-[(4,5-Diisopropylthiophene-2-carbonyl)amino]pyridine-3-carboxylic acid]: the melting point was above 300 °C. On the same count and under the same terms, with `CC(C)c1cc(C(=O)Nc2ccc(C(=O)O)c(F)c2)oc1C(C)C` [Compound 22, 2-Fluoro-4-[(4,5-diisopropylfuran-2-carbonyl)amino]benzoic acid] the figure was 151 to 152 °C.

Take `CC(C)c1cc(C(=O)Nc2ccc(C(=O)O)c(Cl)c2)oc1C(C)C` [Compound 23, 2-Chloro-4-[(4,5-diisopropylfuran-2-carbonyl)amino]benzoic acid]: the melting point was in the range of 152 to 153 °C. Take `CC(C)c1cc(C(=O)Nc2ccc(C(=O)O)c(O)c2)oc1C(C)C` [Compound 24, 2-Hydroxy-4-[(4,5-diisopropylfuran-2-carbonyl)amino]benzoic acid]: the melting point is 179 to 180 °C. Still for that read-out and setting: the result for `COc1cc(NC(=O)c2cc(C(C)C)c(C(C)C)o2)ccc1C(=O)O` [Compound 25, 2-Methoxy-4-[(4,5-diisopropylfuran-2-carbonyl)amino]benzoic acid] reads 136 to 137 °C; that for `CC(C)c1cc(/C=C/C(=O)N(C)c2ccc(C(=O)O)cc2)oc1C(C)C` [Compound 27, 4-[[3-(4,5-Diisopropyl-2-furanyl)acryloyl]methylamino]benzoic acid], 213 to 214 °C; that for `CC(C)c1cc(/C=C/C(=O)Nc2cccc(C(=O)O)c2)oc1C(C)C` [Compound 28, 3-[[3-(4,5-Diisopropyl-2-furanyl)acryloyl]amino]benzoic acid], 220.5 to 221.5 °C. Molecule `CC(C)c1cc(/C=C/C(=O)N(C)c2cccc(C(=O)O)c2)oc1C(C)C` [Compound 29, 3-[[3-(4,5-Diisopropyl-2-furanyl)acryloyl]methylamino]benzoic acid] had a melting point of 187.5 to 189 °C.

Consider `CC(C)c1cc(C(=O)Nc2ccc(C(=O)O)o2)oc1C(C)C` [Compound 35, 5-[(4,5-Diisopropylfuran-2-carbonyl)amino]-2-furancarboxylic acid], for which the melting point was in the range of 169 to 171 °C. Still for that read-out and setting: the result for `CC(C)c1cc(C(=O)Nc2ccc3[nH]c(C(=O)O)cc3c2)oc1C(C)C` [Compound 36, 5-[(4,5-Diisopropylfuran-2-carbonyl)amino]-2-indolecarboxylic acid] reads 240 to 243 °C. Molecule `CC(C)c1cc(C(=O)Nc2ccc(C(=O)O)c(F)c2)sc1C(C)C` [Compound 39, 2-Fluoro-4-[(4,5-diisopropylthiophene-2-carbonyl)amino]benzoic acid] yielded a melting point of 133 to 135 °C.

For `CC(C)c1cc(C(=O)Nc2ccc(C(=O)O)c(Cl)c2)sc1C(C)C` [Compound 40, 2-Chloro-4-[(4,5-diisopropylthiophene-2-carbonyl)amino]benzoic acid], the melting point lay in the range of 222 to 223 °C. `CC(C)c1cc(C(=O)Nc2ccc(C(=O)O)c(O)c2)sc1C(C)C` [Compound 41, 2-Hydroxy-4-[(4,5-diisopropylthiophene-2-carbonyl)amino]benzoic acid] returned a melting point of 129 to 130 °C.

Turning to `COc1cc(NC(=O)c2cc(C(C)C)c(C(C)C)s2)ccc1C(=O)O` [Compound 42, 2-Methoxy-4-[(4,5-diisopropylthiophene-2-carbonyl)amino]benzoic acid], the melting point was in the range of 213 to 214 °C. In the case of `CC(C)c1cc(C(=O)Nc2cc(F)c(C(=O)O)c(F)c2)sc1C(C)C` [Compound 43, 2,6-Difluoro-4-[(4,5-diisopropylthiophene-2-carbonyl)amino]benzoic acid], the melting point was 218 to 219 °C.

The values above are taken from patent US8722730B2, “5-membered heterocyclic compound” (Research Foundation Itsuu Laboratory, priority 2007, dated 2014).
